# Results reported in patent US7833513B2, “Treatment of Alzheimer's Disease” (Rhode Island Hospital, priority 2004, dated 2010).
# How the values were obtained:
# Type in all cases: in vivo, Long Evans rat
# [1] = tested on: GFAP, GSK-3β, phospho-GSK-3β, ubiquitin, tau, phospho-tau, β-actin; assay: ic-STZ model: Western blot analysis of temporal lobe tissue; conditions: 40 mg/kg ic-STZ, Mean±S.E.M.
# Protocol: Western blot analysis was used to assess the levels of Akt, phospho-Akt, GSK-3β, phospho-GSK-3β, Tau, and β-actin. […] Protein concentration was determined using the bicinchoninic acid (BCA) assay (Pierce, Rockford, Ill.). Samples containing 100 μg of protein were fractionated by sodium dodecyl sulfate, polyacrylamide gel electrophoresis (SDS-PAGE). (Ausubel et al., Current Protocols in Molecular Biology (2000)). Proteins were transferred to Immobilon-P (Millipore Corporation, Bedford, Mass.) PVDF membranes and non-specific binding sites were adsorbed with SuperBlock-TBS (Pierce, Rockford, Ill.). Membranes were incubated over night at 4° C. with primary antibody (0.5-1 μg/ml) diluted in Tris-buffered saline (TBS; 50 mM Tris, 150 mM NaCl, pH 7.4) containing 1% bovine serum albumin and 0.05% Tween-20 (TBST-BSA). Immunoreactivity was detected using horseradish peroxidase (HRP) conjugated IgG (Pierce, Rockford, Ill.), Western Lightning chemiluminescence reagents (Perkin Elmer Life Sciences Inc., Boston, Mass.), and film autoradiography. All incubations were performed using gentle platform agitation. Immunoreactivity was quantified using the Kodak Digital Science Imaging Station (NEN Life Sciences, Boston, Mass.).
# Western blot analysis was used to assess the levels of tau, phospho-tau, ubiquitin, GSK-3β, phospho-GSK-3β, GFAP, and β-actin as described above.
# Studies were performed to determine if ic-STZ-induced neurodegeneration was associated with increased activation of GSK-3β (reduced phospho-GSK-3β/total GSK-3β ratio) and increased levels of phospho-tau. Since characteristic features of AD-type neurodegeneration also include increased ubiquitination of proteins, including tau (Godbolt et al., Arch. Neurol. 62:1097 (2005); Kosik et al., Biochim. Biophys. Acta 1739:298 (2005); de Vrij et al., Prog. Neurobiol. 74:249 (2004)) and gliosis associated with cell loss, Western blot analysis was used to measure ubiquitin and GFAP immunoreactivity as well. β-actin expression was measured as a […].
# Values correspond to arbitrary densitometry units (Mean±S.E.M.). Results were analyzed using Student t-tests.
# [2] = ic-STZ rat pup model: blood glucose, body and brain weight, pancreas and brain histopathology
# Protocol: Control rats were identically injected with sterile saline. […] Andican et al., Clin. Exp. Pharmacol. Physiol. 32:663 (2005); Saad et al., Arch. Toxicol. (2005); Srinivasan et al., Pharmacol. Res. 52:313 (2005); Karabatas et al., Pancreas 30:318 (2005); Mabley et al., Pancreas 28:E39 (2004). […] The injections were completed within 3 minutes and the needle was withdrawn slowly from the brain.
# At the termination point of the experiment, the rats were weighed and then sacrificed by isofluorane inhalation. Blood was obtained by cardiac puncture to measure glucose concentration using the OneTouch Ultra Blood Glucose Meter (Lifescan, Inc). The pancreases were harvested and immersion fixed in Histofix (Amresco Corp, Solon, Ohio) for paraffin embedding. Fresh brains were weighed and then cut in the coronal plane to obtain a ˜3 mm thick slice that flanked the infundibulum. The 3-mm brain slice was snap frozen between two slabs of dry ice, and stored at −80° C. for later RNA and protein extractions. The residual tissue was immersion fixed (Histofix) and embedded in paraffin for histopathological study and immunohistochemical staining. In approximately 20% of the cases, the brains were weighed, immersion fixed whole, and then sectioned in the coronal plane along standardized landmarks for paraffin embedding and histopathological sectioning.
# Paraffin-embedded histological sections of pancreas (5 μm thick) and brain (8 μm thick) were stained with hematoxylin and eosin (H&E) and examined for histopathological lesions, i.e., inflammation, necrosis, and islet cell degeneration. […] As negative controls for the immunostaining reactions, either the primary antibody was omitted or non-relevant monoclonal antibody to Hepatitis B virus was used in place of the relevant antibody.
# Prior to immunostaining, the deparaffinized, re-hydrated tissue sections were sequentially treated with 0.1 mg/ml saponin in phosphate buffered saline (10 mM sodium phosphate, 0.9% NaCl, pH 7.4; PBS), for 20 minutes at room temperature. […] After overnight incubation at 4° C. with antibodies diluted to 0.1-1 μg/ml (according to the manufacturer's recommendations), immunoreactivity was detected using rat tissue-pre-adsorbed biotinylated secondary antibodies, avidin biotin horseradish peroxidase complex (ABC) reagents, and diaminobenzidine as the chromogen (Vector Laboratories, Burlingame, Calif.). de la Monte et al., Lab. Invest. 80:1323 (2000). The sections were counterstained with hematoxylin and preserved with mounting medium and coverglass. All sections were examined under code.
# IGF-II receptor = conditions: temporal lobe membrane extracts
# Protocol: Membrane proteins were extracted from fresh frozen temporal lobe tissue (˜100 mg) by Polytron (Glen Mils Inc., Clifton, N.J.) homogenization in 5 volumes of NP-40 lysis buffer (50 mM Tris-HCl, pH 7.5, 150 mM NaCl, 1 mM EDTA, 2 mM EGTA, 1% NP-40) containing protease (1 mM PMSF, 0.1 mM TPCK, 1 μg/ml aprotinin, 1 μg/ml pepstatin A, 0.5 μg/ml leupeptin, 1 mM NaF, 1 mM Na4P2O7) and phosphatase (2 mM Na3VO4) inhibitors. The supernatant fractions obtained after centrifuging the samples at 10,000×g for 15 minutes at 4° C. were used in the binding assays. […] Protein concentrations were measured with the bicinchoninic acid (BCA) assay (Pierce, Rockford, Ill.).
# Competitive equilibrium binding assays were used to assess growth factor binding in relation to ic-STZ-treatment. […]
# All reactions were performed in 1.5 ml Eppendorff tubes, and the incubations were performed at 4° C. for 16 hours with gentle platform agitation. […] Each sample was counted for 1 minute in an LKB CompuGamma CS Gamma counter. Specific binding was calculated by subtracting fmols of non-specific binding, i.e. amount bound in the presence of excess cold ligand, from total fmols bound (absence of unlabeled competitive ligand). The binding assay results were analyzed using the GraphPad Prism 4 software (GraphPad Software, Inc., San Diego, Calif.).
smiles,measurement,setting,value
CN(N=O)C(=O)NC1C(O)OC(CO)C(O)C1O (centres unmarked) [STZ],GFAP protein (Western blot),[1],983591 ± 113549 arbitrary densitometry units
same,GSK-3β protein (Western blot),[1],149945 ± 15588 arbitrary densitometry units
same,Tau protein (Western blot),[1],686442 ± 65138 arbitrary densitometry units
same,Ubiquitin protein (Western blot),[1],1390824 ± 133586 arbitrary densitometry units
same,p-GSK-3β protein (Western blot),[1],2811 ± 296 arbitrary densitometry units
same,p-Tau protein (Western blot),[1],3378 ± 920 arbitrary densitometry units
same,"β-Actin protein (Western blot, negative control)",[1],196548 ± 14314 arbitrary densitometry units
same,hemorrhage in brain,[2]; 40 mg/kg ic-STZ,multiple small foci of acute subarachnoid hemorrhage
same,insulin immunoreactivity in pancreatic islets,[2]; 40 mg/kg ic-STZ,prominent insulin immunoreactivity in all pancreatic islets
same,pancreas histopathology,[2]; 40 mg/kg ic-STZ,"no evidence of inflammation, necrosis, or islet cell degeneration"
same,size of cerebral and cerebellar hemispheres,[2]; 40 mg/kg ic-STZ,conspicuously reduced in size
same,mean blood glucose level vs control,"[2]; 40 mg/kg ic-STZ, day 14",significantly lower than control
same,mean body weight vs control,"[2]; 40 mg/kg ic-STZ, day 14",significantly reduced
same,mean brain weight vs control,"[2]; 40 mg/kg ic-STZ, day 14",significantly reduced relative to control
same,random blood glucose concentration (none of the rats above),"[2]; 40 mg/kg ic-STZ, day 14",≤ 180 mg/dL
same,survival of the injections,"[2]; 3-day-old pups, bilateral ic injection",All animals survived
same,IGF-II binding vs control,IGF-II receptor,significantly reduced
